According to publication PMC10385743:
Where “and” joins values, the source holds several entries; their conditions need not be identical. Equal entries are not always repeated.

Experiments:
[1] = tested on: YFV (strain 17D) subgenomic replicon; experiment: microbe, parasite or virus in culture; assay type: cell-based, yellow fever virus; conditions: read-out: Huh7-YF (YFV Replicon 17D) EC50; 72 h; luciferase; mean ± SD
[2] = tested on: Huh5-2 cells; experiment: Cytotoxicity in Huh5-2 replicon cells (intracellular ATP levels); conditions: read-out: Huh5-2 (HCV Replicon 1b) CC50; 72 h; ATP levels; mean ± SD; * highest concentration used 10 μΜ
[3] = tested on: DENV serotype 2 (strain 16681) subgenomic replicon; experiment: microbe, parasite or virus in culture; assay type: cell-based, dengue virus; conditions: 72 h; luciferase; mean ± SD; read-out: Huh7-D2 (DENV-2 Replicon) EC50
[4] = tested on: HCV GT 3a (strain S52) subgenomic replicon; experiment: microbe, parasite or virus in culture; assay type: cell-based, hepatitis C virus; conditions: 72 h; luciferase; mean ± SD; read-out: Huh7.5-3a(S52) (HCV Replicon 3a) EC50
[5] = tested on: bloodstream form T. b. brucei (strain 221)
[6] = tested on: rat skeletal myoblast L6 cells; experiment: Cytotoxicity against cultured L6 cells (resazurin); conditions: read-out: L6 Cells CC50; mean of triplicate experiments ± SEM
[7] = tested on: T. cruzi (CL Brener strain) epimastigotes; conditions: read-out: T. cruzi EC50; epimastigotes; mean of triplicate experiments ± SEM
[8] = tested on: HCV GT 4a (strain ED43) subgenomic replicon; experiment: microbe, parasite or virus in culture; assay type: cell-based, hepatitis C virus; conditions: 72 h; luciferase; mean ± SD; read-out: Huh7.5-4a(ED43) (HCV Replicon 4a) EC50

CC1CCC2(NC(=O)N(CC(=O)NO)C2=O)c2ccccc21 [Compound 35, Ν-(Hydroxy)-2-((4R,4′R)/(4S,4′S)-4′-methyl-2,5-dioxo-3′,4′-dihydro-2′H-spiro[imidazolidine-4,1′-naphthalene]-1-yl)acetamide]
EC50 [1]: > 10 µM | CC50 [2]: > 200 µM | EC50 [3]: > 10 µM | EC50 [4]: 770 ± 30 nM | EC50 ([5]; read-out: T. brucei EC50, cultured bloodstream form, mean of triplicate experiments ± SEM): 560 ± 70 nM | EC90 ([5]; read-out: T. brucei EC90, cultured bloodstream form, mean of triplicate experiments ± SEM): 860 ± 190 nM | SI (CC50 for L6 cells / EC50 for T. brucei) ([5]; selectivity index): 400 | CC50 [6]: > 200 µM and 224 µM | EC50 [7]: > 30 µM | EC50 [8]: 410 ± 20 nM
